From patent publication US10301272B2, “Carboxamide or sulfonamide substituted thiazoles and related derivatives as modulators for the orphan nuclear receptor ROR[γ]” (Phenex Pharmaceuticals AG, priority 2012, dated 2019)
Read-outs that look alike come from different tables or passages of the source.

Biological target: RORγ (Homo sapiens, UniProt P51449)
Test: RORγ Gal4 Reporter Gene Assay
Format: cell-based
Conditions: for IC50: 293T cells
Protocol: Determination of a ligand mediated Gal4 promoter driven transactivation to quantify ligand binding to RORγ was performed as follows: DNA encoding three different RORγ protein fragments was cloned into vector pCMV-BD (Stratagene). Expression was under control of a CMV promoter and as fusion to the DNA-binding domain of the yeast protein GAL4. Other vectors used were pFR-Luc (Stratagene) as regulated reporter plasmid. pFR-Luc contains a synthetic promoter with five tandem repeats of the yeast GAL4 binding sites that control expression of the Photinus pyralis (American firefly) luciferase gene. In order to improve experimental accuracy the plasmid pRL-CMV was cotransfected. pRL-CMV contains the constitutive CMV promoter, controlling the expression of the Renilla reniformis luciferase.
The medium is supplemented with 10% fetal bovine serum, 0.1 mM nonessential amino acids, 1 mM sodium pyruvate, 1% Glutamax and 100 units Penicilin/[…] per mL at 37° C. in 5% CO2.
For the assay, […] were plated per well in 96 well plates in 100 μL per well, incubated over night at 37° C. in 5% CO2. […] About 4 h after addition of the transfection solution, fresh Minimal Essential Medium (MEM, same composition as used for plating cells, but without serum) was added. Then compound stocks, prediluted in MEM (same composition as used for plating cells) were added (final vehicle concentration not exceeding 0.1%).
All experiments were done at least in triplicates.

Sequence of RORγ (P51449 whole entry, looked up, the tested form may be a part): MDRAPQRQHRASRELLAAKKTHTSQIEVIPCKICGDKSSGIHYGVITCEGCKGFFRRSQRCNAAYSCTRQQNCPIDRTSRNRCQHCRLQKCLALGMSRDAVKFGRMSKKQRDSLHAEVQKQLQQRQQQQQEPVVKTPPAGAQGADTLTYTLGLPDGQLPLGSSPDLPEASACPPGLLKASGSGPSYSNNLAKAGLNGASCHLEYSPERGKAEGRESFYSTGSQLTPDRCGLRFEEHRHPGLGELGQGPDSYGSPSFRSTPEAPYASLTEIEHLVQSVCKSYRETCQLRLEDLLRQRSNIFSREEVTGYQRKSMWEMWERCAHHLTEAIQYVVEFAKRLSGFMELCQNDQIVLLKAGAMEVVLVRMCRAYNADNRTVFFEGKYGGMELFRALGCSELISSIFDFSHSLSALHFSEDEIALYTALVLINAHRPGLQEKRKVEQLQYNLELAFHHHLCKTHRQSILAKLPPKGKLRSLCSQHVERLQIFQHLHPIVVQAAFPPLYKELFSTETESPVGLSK

| IC50 (firefly (FF) luciferase, read-out: pIC50 (FF) (converted)) | IC50 (renilla normalised (RENnorm) luciferase, read-out: pIC50 (REN) (converted)) | Compound | pIC50 (FF) | pIC50 (REN) |
| --- | --- | --- | --- | --- |
|  |  | CC(C)(C)NS(=O)(=O)c1ccc(-c2sc(C(=O)N[C@H]3C[C@H](C(=O)O)C3)nc2C2CCCCC2)c2ccccc12 [300/17] | nt/8.0/8.0 | nt/8.0/8.0 |
| 31.6 nM | 25.1 nM | CC(C)(C)NS(=O)(=O)c1ccc(-c2sc(C(=O)N[C@H]3C[C@H](C(=O)O)C3)nc2Cc2ccccc2)c2ccccc12 [300/18] |  |  |
|  |  | CCC(C)(C)NS(=O)(=O)c1ccc(-c2sc(C(=O)N3CC4(C3)CS(=O)(=O)C4)nc2C(=O)N2CCC(C)CC2)c(Cl)c1C [301/2] | nt/7.7/7.8 | nt/7.7/7.8 |
|  |  | CC(C)(O)CNC(=O)c1nc(C(=O)N2CCCCC2(C)C)c(-c2ccc(S(=O)(=O)NC(C)(C)C)c3ccccc23)s1 [304/6] | nt/6.6/6.8 | nt/6.6/6.8 |
|  |  | CC1CCCN(C(=O)c2nc(C(=O)NCC(C)(C)O)sc2-c2ccc(S(=O)(=O)NC(C)(C)C)c3ccccc23)C1C (stereo not shown) [304/9] | nt/7.3/7.4 | nt/7.3/7.4 |
|  |  | CCC1CCN(C(=O)c2nc(C(=O)NCC(C)(C)O)sc2-c2ccc(S(=O)(=O)NC(C)(C)C)c3ccccc23)CC1 [304/10] | nt/7.5/7.5 | nt/7.5/7.5 |
|  |  | CC1CCN(C(=O)c2nc(C(=O)NCC(C)(C)O)sc2-c2ccc(S(=O)(=O)N[C@@H](C)C(F)(F)F)c3ccccc23)CC1 [304/12] | nt/7.7/7.7 | nt/7.7/7.7 |
|  |  | CCC(C)(C)NS(=O)(=O)c1ccc(-c2sc(C(=O)NCC(C)(C)O)nc2C(=O)N2CCC(C)CC2)c2ccccc12 [304/13] | nt/7.6/7.7 | nt/7.6/7.7 |
|  |  | CCC(C)(C)NS(=O)(=O)c1ccc(-c2sc(C(=O)NC3CCS(=O)(=O)CC3)nc2C(=O)N2CCC(C)CC2)c2ccccc12 [304/14] | nt/7.5/7.6 | nt/7.5/7.6 |
|  |  | CCC(C)(C)NS(=O)(=O)c1ccc(-c2sc(C(=O)NC3CCOCC3)nc2C(=O)N2CCC(C)CC2)c2ccccc12 [304/15] | nt/7.6/7.7 | nt/7.6/7.7 |
|  |  | CC1CCN(C(=O)c2nc(C(=O)N3CC4(CCS(=O)(=O)CC4)C3)sc2-c2ccc(S(=O)(=O)NC(C)(C)C)c3ccccc23)CC1 [304/16] | nt/6.6/6.6 | nt/6.6/6.6 |
|  |  | CC1CCN(C(=O)c2nc(C(=O)N3CC4(CCOCC4)C3)sc2-c2ccc(S(=O)(=O)NC(C)(C)C)c3ccccc23)CC1 [304/17] | nt/7.2/7.2 | nt/7.2/7.2 |
|  |  | CC1CCN(C(=O)c2nc(C(=O)NC3CC34CCOCC4)sc2-c2ccc(S(=O)(=O)NC(C)(C)C)c3ccccc23)CC1 (stereo not shown) [304/18] | nt/7.5/7.7 | nt/7.5/7.7 |
|  |  | CC1CCN(C(=O)c2nc(C(=O)NCC(C)(C)O)sc2-c2ccc(S(=O)(=O)NCC(C)(C)C)c3ccccc23)CC1 [304/19] | nt/7.4/7.5 | nt/7.4/7.5 |
|  |  | CCN(C(C)(C)C)S(=O)(=O)c1ccc(-c2sc(C(=O)NCC(C)(C)O)nc2C(=O)N2CCC(C)CC2)c2ccccc12 [304/20] | nt/7.4/7.7 | nt/7.4/7.7 |
|  |  | CC1CCN(C(=O)c2nc(C(=O)NCC(C)(C)O)sc2-c2ccc(S(=O)(=O)NCC(F)(F)F)c3ccccc23)CC1 [304/21] | nt/7.4/7.4 | nt/7.4/7.4 |
|  |  | CC1CCN(C(=O)c2nc(C(=O)NCC(C)(C)O)sc2-c2ccc(S(=O)(=O)NCC(C)(C)O)c3ccccc23)CC1 [304/22] | nt/5.8/5.8 | nt/5.8/5.8 |
|  |  | CC1CCN(C(=O)c2nc(C(=O)NCC(C)(C)O)sc2-c2ccc(S(=O)(=O)N(CC(F)(F)F)C(C)(C)C)c3ccccc23)CC1 [304/23] | nt/7.5/7.7 | nt/7.5/7.7 |
|  |  | CC1CCN(C(=O)c2nc(C(=O)NCC(C)(C)O)sc2-c2ccc(S(=O)(=O)NC3CCOC3)c3ccccc23)CC1 (stereo not shown) [304/24] | nt/6.6/6.7 | nt/6.6/6.7 |
|  |  | CC1CCN(C(=O)c2nc(C(=O)NCC(C)(C)O)sc2-c2ccc(S(=O)(=O)N3CCCCC3(C)C)c3ccccc23)CC1 [304/25] | nt/8.0/7.6 | nt/8.0/7.6 |
